Laboratory results published in paper PMC12389534, “Unlocking Therapeutic Potential of Novel Thieno-Oxazepine Hybrids as Multi-Target Inhibitors of AChE/BChE and Evaluation Against Alzheimer’s Disease: In Vivo, In Vitro, Histopathological, and Docking Studies” (Pharmaceuticals, 2025).

Columns and labels:
[1] = tested on: AlCl3-induced AD rat model; assay: Y-maze SAP test in AlCl3-induced AD rats; format: in vivo; conditions: for SAP%: mean ± SE, n = 6
Experimental: All procedures were conducted conforming to the applicable National Institutes of Health standards and regulations for the Care and Use of Laboratory Animals. In this experiment, adult male Dawley rats in excellent condition weighing between 300 and 320 g were used. The animals were acquired from the Nile Company for Pharmaceuticals and Chemical Industries (Cairo, Egypt). They were placed in a controlled laboratory setting with unrestricted access to water, a temperature range of 24 to 26 °C, and 12 h a light–dark cycle. Three rats per cage were housed in polycarbonate cages that were individually packed with paper and encased with stainless steel wire.
One kind of short-term memory that SAP can represent is spatial working memory. Three arms, designated A, B, or C, were employed in a black hardwood Y-maze with a symmetrical triangular core space. Rats were briefly positioned at the edge of one arm and given 8 min to freely navigate around the maze. When the rat’s rear paws were fully inside the arm, the entries were counted. The following formula was used to determine SAP based on the total number of arm entries and alternations: SAP (%) = [number of alternations/(total arm entries − 2)] × 100 [94].

[2] = tested on: TNF-α; assay: Brain TNF-α level (ELISA); format: in vivo, rat; conditions: AlCl3-induced AD rats; for TNF-α (pg/g Tissue): mean ± SE, n = 6
Experimental: (§1) The brain tissues of the rats were removed and rigorously washed in isotonic saline 24 h after they were euthanized following the last behavioral test. For histological investigation, four brains per group were preserved for the whole night in 10% neutral buffered formalin. The remaining six brains were split into two sections each. In order to create a 10% homogenate (w/v), the first component was instantaneously homogenized using an ice-cold solution that included 300 mM sucrose and 50 mM Tris-HCl (pH 7.4). The homogenate was centrifuged at 1800× g for 10 min at 4 °C for biochemical tests, and the supernatant was thereafter kept at −20 °C. The second portion was set aside for use in RT-PCR analysis at −80 °C [94]. […]

[3] = tested on: GSK3β; assay: GSK3β gene expression (RT-qPCR); format: in vivo, rat; conditions: AlCl3-induced AD rats; for GSK3β: gene expression, mean ± SE, n = 6
Experimental: (§2) The brain tissues of the rats were removed and rigorously washed in isotonic saline 24 h after they were euthanized following the last behavioral test. For histological investigation, four brains per group were preserved for the whole night in 10% neutral buffered formalin. The remaining six brains were split into two sections each. In order to create a 10% homogenate (w/v), the first component was instantaneously homogenized using an ice-cold solution that included 300 mM sucrose and 50 mM Tris-HCl (pH 7.4). The homogenate was centrifuged at 1800× g for 10 min at 4 °C for biochemical tests, and the supernatant was thereafter kept at −20 °C. The second portion was set aside for use in RT-PCR analysis at −80 °C [94].
(§3) See Supplementary Information.

[4] = tested on: NE; assay: Brain NE level (fluorometric); format: in vivo, rat; conditions: AlCl3-induced AD rats; for NE (nmol/g Tissue): brain tissue, mean ± SE, n = 6
Experimental: as §2
(§4) Brain monoamine levels were promptly assessed following the rats’ euthanasia to prevent changes in the substance’s concentration. Dopamine (DA), norepinephrine (NE), and serotonin (5-HT) fluorometric tests were conducted on brain tissue homogenate using the Ciarlone method. […] The concentrations were articulated as nanograms per gram of fresh tissue using the fluorescence of reference solutions [95].

[5] = tested on: SOD; assay: Brain SOD activity (colorimetric); format: in vivo, rat; conditions: AlCl3-induced AD rats; for SOD(U/g): brain tissue, mean ± SE, n = 6
Experimental: as §2
The SOD enzyme activity was estimated using the Marklund et al. method, which is founded on the enzyme’s capacity to decrease the nitro blue tetrazolium dye at a wavelength of 540 nm. To evaluate the TAC, a colorimetric approach was employed to estimate the amount of hydrogen peroxide that remains after 3,5-dichloro-2-hydroxybenzene sulphonate is converted to a colored product at 660 nm.

[6] = tested on: TLR4; assay: TLR4 mRNA expression (RT-qPCR); format: in vivo, rat; design: reduction of TLR4 mRNA expression: concentration or dose not given beside the values; conditions: AlCl3-induced AD rats; for TLR4: mRNA expression level, mean ± SE, n = 6
Experimental: as §2, §3

[7] = tested on: Wnt3a; assay: Brain Wnt3a level; format: in vivo, rat; conditions: AlCl3-induced AD rats; for Wnt3a (ng/g Tissue): mean ± SE, n = 6
Experimental: as §2, §3

[8] = tested on: IL-1β; assay: Brain IL-1β level (ELISA); format: in vivo, rat; design: reduction in IL-1β levels: concentration or dose not given beside the values; conditions: AlCl3-induced AD rats; for IL-β (pg/g Tissue): mean ± SE, n = 6
Experimental: as §1

[9] = tested on: BAX; assay: BAX gene expression (RT-qPCR); format: in vivo, rat; conditions: AlCl3-induced AD rats; for BAX: gene expression, mean ± SE, n = 6
Experimental: as §2, §3

[10] = molecular target: T1, AChE (Homo sapiens, UniProt P22303); assay: biochemical; conditions: colorimetric kit, 412 nm
T1 construct: purchased BioVision K197-100
Experimental: All newly created compounds were subjected to an AChE enzyme inhibitory screening. This was performed with the Colorimetric AChE Inhibitor Screening Kit (BioVision Catalog # K197-100). The 96-well assay kit provides a rapid, simple, and reliable way to screen for AChE inhibitors in large quantities. […] A completely transparent 96-well plate with a flat bottom was loaded with 10 µL of test inhibitors that were diluted (20×). […] A measure of 10 μL of diluted AChE was applied to each well that contained compounds, inhibitor control, and solvent control. […] Measures of 25 μL of AChE assay buffer, 5 μL of probe mix, and 10 μL of diluted AChE substrate were mixed to create the reaction mix. The reaction mix was mixed with the compound, enzyme control, and inhibitor control. […] The IC50 was calculated using nonlinear regression analysis using the response–concentration (log) curve.

[11] = tested on: AChE; format: in vivo; design: reduction in AChE levels: concentration or dose not given beside the values; conditions: AlCl3-induced AD rats; for AChE (ng/g Tissue): brain tissue, mean ± SE, n = 6; for reduction in AChE levels: brain
[12] = tested on: β-catenin; assay: Brain β-catenin level; format: in vivo, rat; conditions: AlCl3-induced AD rats; for β-Catenin (ng/L): mean ± SE, n = 6
Experimental: as §2, §3

[13] = tested on: DA; assay: Brain DA level (fluorometric); format: in vivo, rat; conditions: AlCl3-induced AD rats; for DA (ng/g Tissue): brain tissue, mean ± SE, n = 6
Experimental: as §2, §4

[14] = tested on: MDA; assay: Brain MDA content (thiobarbituric acid method); format: in vivo, rat; design: reduction in MDA brain content: concentration or dose not given beside the values; conditions: AlCl3-induced AD rats; for MDA (nmol/g Tissue): brain tissue, mean ± SE, n = 6
[15] = molecular target: T2, BChE (Homo sapiens, UniProt P06276); assay: biochemical; conditions: for IC50: fluorescence kit, triplicate; for Selectivity Index BChE/AChE: ratio of IC50 BChE to IC50 AChE, <1 = preferential BChE inhibition
T2 construct: purchased Invitrogen EIABCHEF
Experimental: Using an Invitrogen BChE test kit (Catalog #EIABCHEF), the assay was performed in compliance with the supplier’s instructions. The study was conducted using black 96-well plates. […] Each well was then filled with 50 μL of the reaction mixture, which consisted of fluorescence detection reagent and butyrylthiocholine iodide in assay buffer. The plate was then left to incubate for 20 min at room temperature. Finally, excitation at 390 nm was used to observe emission at 510 nm using a microplate reader. Background fluorescence was further eliminated for each data point.

[16] = tested on: Amyloid-β; assay: Brain amyloid-β level (ELISA); format: in vivo, rat; design: reduction of β-amyloid levels: concentration or dose not given beside the values; conditions: AlCl3-induced AD rats; for Amyloid-β (ng/g Tissue): brain, mean ± SE, n = 6
Experimental: as §2, §3

T2 sequence (P06276 29-602): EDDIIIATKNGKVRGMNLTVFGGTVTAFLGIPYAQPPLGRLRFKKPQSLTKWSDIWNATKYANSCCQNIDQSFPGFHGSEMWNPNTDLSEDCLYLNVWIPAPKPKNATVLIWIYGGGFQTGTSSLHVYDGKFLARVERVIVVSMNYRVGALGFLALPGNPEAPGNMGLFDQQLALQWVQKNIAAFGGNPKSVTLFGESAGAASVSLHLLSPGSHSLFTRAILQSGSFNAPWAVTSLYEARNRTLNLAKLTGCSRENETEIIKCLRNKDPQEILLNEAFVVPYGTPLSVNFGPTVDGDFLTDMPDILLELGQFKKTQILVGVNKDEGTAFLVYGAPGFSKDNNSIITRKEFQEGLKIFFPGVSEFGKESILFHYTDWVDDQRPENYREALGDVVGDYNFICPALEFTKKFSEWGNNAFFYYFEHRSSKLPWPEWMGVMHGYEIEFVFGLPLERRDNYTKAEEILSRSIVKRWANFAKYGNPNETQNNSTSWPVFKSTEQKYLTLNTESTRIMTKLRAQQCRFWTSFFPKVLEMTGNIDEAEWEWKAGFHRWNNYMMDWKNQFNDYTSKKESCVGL
T1 sequence (P22303 32-614): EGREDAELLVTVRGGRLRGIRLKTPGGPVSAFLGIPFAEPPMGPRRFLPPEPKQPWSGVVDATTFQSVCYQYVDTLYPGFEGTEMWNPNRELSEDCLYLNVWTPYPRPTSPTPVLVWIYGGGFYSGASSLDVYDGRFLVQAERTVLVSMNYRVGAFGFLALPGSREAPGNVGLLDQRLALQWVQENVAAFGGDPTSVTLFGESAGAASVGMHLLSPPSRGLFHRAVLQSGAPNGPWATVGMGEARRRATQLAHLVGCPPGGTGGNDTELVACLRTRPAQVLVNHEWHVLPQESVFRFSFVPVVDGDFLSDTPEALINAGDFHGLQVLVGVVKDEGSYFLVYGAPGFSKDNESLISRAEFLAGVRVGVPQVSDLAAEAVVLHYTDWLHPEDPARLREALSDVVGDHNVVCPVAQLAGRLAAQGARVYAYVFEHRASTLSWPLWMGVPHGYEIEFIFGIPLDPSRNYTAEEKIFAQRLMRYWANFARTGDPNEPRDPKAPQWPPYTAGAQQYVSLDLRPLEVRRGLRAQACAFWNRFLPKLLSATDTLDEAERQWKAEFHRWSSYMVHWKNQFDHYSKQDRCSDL

SMILES | SAP% [1] | decline in TNF-α levels [2] [%] | TNF-α (pg/g Tissue) [2] | GSK3β [3] | NE (nmol/g Tissue) [4] | SOD(U/g) [5] | TLR4 [6] | elevation of Wnt3a levels [7] [fold] | Wnt3a (ng/g Tissue) [7] | reduction in IL-1β levels [8] [%] | IL-β (pg/g Tissue) [8] | BAX [9] | IC50 [10] [µM] | AChE (ng/g Tissue) [11] | reduction in AChE levels [11] [%] | elevation of β-catenin levels [12] [fold] | β-Catenin (ng/L) [12] | DA (ng/g Tissue) [13] | MDA (nmol/g Tissue) [14] | IC50 [15] [µM] | further results
CCOC(=O)c1c(O)sc2c1CCCCC2 [Compound 2, Ethyl 2-hydroxy-5,6,7,8-tetrahydro-4H-cyclohepta[b]thiophene-3-carboxylate] | 62.33 ± 1.05 ^abc % | 31 | 121.4 ± 0.97 ^abc pg/g Tissue | 8.80 ± 0.12 ^abc | 256.9 ± 1.62 ^abc nmol/g Tissue | 0.68 ± 0.26 ^abc U/g | 7.66 ± 0.12 ^abc | 2 | 0.25 ± 0.01 ^abc ng/g Tissue | 20.6 | 93.93 ± 1.26 ^abc pg/g Tissue | 8.13 ± 0.070 ^abc | 1.1 ± 0.04 | 51.41 ± 0.13 ^abc ng/g Tissue | 23.6 | 2.7 | 4.262 ± 0.12 ^abc ng/L | 24.71 ± 1.62 ^abc ng/g Tissue | 92.07 ± 0.04 ^abc nmol/g Tissue | 5.72 ± 0.2 | increase in SAP% [1]: 14.6%; reduction of GSK3β gene expression [3]: 13.7%; suppression of BAX gene expression [9]: 16%; Selectivity Index BChE/AChE [15]: 5.21; reduction of β-amyloid levels [16]: 30.2%; Amyloid-β (ng/g Tissue) [16]: 19.52 ± 0.15 ^abc ng/g Tissue
CCOC(=O)c1c(OC(=O)CCl)sc2c1CCCCC2 [Compound 4, Ethyl 2-(2-chloroacetoxy)-5,6,7,8-tetrahydro-4H-cyclohepta[b]thiophene-3-carboxylate] | 72.67 ± 1.02 ^abc % | 35.4 | 113.6 ± 0.83 ^abc pg/g Tissue | 6.86 ± 0.15 ^abc | 282.6 ± 1.2 ^abc nmol/g Tissue | 1.75 ± 0.31 ^abc U/g | 6.39 ± 0.12 ^abc | 2.8 | 0.34 ± 0.01 ^abc ng/g Tissue | 30 | 82.82 ± 1.1 ^abc pg/g Tissue | 7.42 ± 0.030 ^abc | 41.2 ± 1.42 | 43.89 ± 0.19 ^abc ng/g Tissue | 34.8 | 3.9 | 6.17 ± 0.07 ^abc ng/L | 30.69 ± 1.2 ^abc ng/g Tissue | 77.14 ± 0.06 ^abc nmol/g Tissue | 56.2 ± 1.93 | reduction of GSK3β gene expression [3]: 32.7%; SOD activity levels ([5]; brain): 1.75 U/g tissue; suppression of BAX gene expression [9]: 23.3%; reduction in MDA brain content [14]: 33.6%; Selectivity Index BChE/AChE [15]: 1.36; reduction of β-amyloid levels [16]: 38.9%; Amyloid-β (ng/g Tissue) [16]: 17.05 ± 0.2 ^abc ng/g Tissue
O=C1CN(c2ccccc2)C(=O)c2c(sc3c2CCCCC3)O1 [Compound 11, 4-Phenyl-3,4,7,8,9,10-hexahydro-6H-cyclohepta[4,5]thieno[3,2-f][1,4]oxazepine-2,5-dione] | 69.67 ± 1.69 ^abc % | 43.6 | 99.23 ± 0.42 ^abc pg/g Tissue | 2.34 ± 0.06 ^abc | 321.2 ± 6.11 ^abc nmol/g Tissue | 2.46 ± 0.32 ^abc U/g | 5.56 ± 0.1 ^abc | 3.9 | 0.47 ± 0.01 ^abc ng/g Tissue | 42.1 | 68.56 ± 0.54 ^abc pg/g Tissue | 6.84 ± 0.090 ^abc | 2.67 ± 0.09 | 20.09 ± 0.45 ^abc ng/g Tissue | 70.1 | 4.8 | 7.25 ± 0.04 ^abc ng/L | 54.63 ± 6.11 ^abc ng/g Tissue | 36.75 ± 0.09 ^abc nmol/g Tissue | 13.8 ± 0.48 | increase in SAP% [1]: 22%; rise in the level of NE [4]: 1.7 times; reduction of TLR4 mRNA expression [6]: 42.2%; suppression of BAX gene expression [9]: 29.3%; elevation of DA levels [13]: 4.6 fold; reduction in MDA brain content [14]: 68.4%; Selectivity Index BChE/AChE [15]: 5.18; reduction of β-amyloid levels [16]: 48.9%; Amyloid-β (ng/g Tissue) [16]: 14.25 ± 0.16 ^abc ng/g Tissue
O=C1CN(c2ccc(Cl)cc2)C(=O)c2c(sc3c2CCCCC3)O1 [Compound 12, 4-(4-Chlorophenyl)-3,4,7,8,9,10-hexahydro-6H-cyclohepta[4,5]thieno[3,2-f][1,4]oxazepine-2,5-dione] | 76.5 ± 1.52 ^abc % | 62.5 | 65.98 ± 0.91 ^abc pg/g Tissue | 5.36 ± 0.07 ^abc | 420.5 ± 2.86 ^abc nmol/g Tissue | 2.15 ± 0.39 ^abc U/g | 2.75 ± 0.06 ^abc | 6.3 | 0.76 ± 0.01 ^abc ng/g Tissue | 53.9 | 54.51 ± 1.3 ^abc pg/g Tissue | 4.85 ± 0.110 ^abc | 10.9 ± 0.38 | 35.66 ± 0.19 ^abc ng/g Tissue | 47 | 6.3 | 9.91 ± 0.15 ^abc ng/L | 38.37 ± 2.86 ^abc ng/g Tissue | 72.02 ± 0.05 ^abc nmol/g Tissue | 65.9 ± 2.27 | reduction of GSK3β gene expression [3]: 47.4%; rise in the level of NE [4]: 2.2 times; reduction of TLR4 mRNA expression [6]: 71.4%; elevation of DA levels [13]: 3.2 fold; reduction in MDA brain content [14]: 38%; Selectivity Index BChE/AChE [15]: 6.04; reduction of β-amyloid levels [16]: 62.3%; Amyloid-β (ng/g Tissue) [16]: 10.51 ± 0.1 ^abc ng/g Tissue
